Measurements taken from patent EP1136472A1, “ARYL- AND HETEROARYLAMIDES OF CARBOALKOXYSULFANILIC ACIDS” (priority 1998, dated 2000).
Converted amounts (≈) assume the structure as drawn. Read-outs that look alike come from different tables or passages of the source.

Key:
[1] = tested on: primary culture of human lymphocytes; assay: Interferon-inducing activity in primary culture of human lymphocytes (IFN-α immunoenzyme test); assay type: cell-based
Protocol: Interferon synthesis induction caused by the claimed compounds was conducted on a primary culture of human lymphocytes (it is these cells in a human organism that are the main producers of interferons). To obtain lymphocyte culture, fresh blood (within 12 hours after sampling) from healthy donors (not of group II) was used. To separate lymphocytes, heparinized blood obtained from healthy donor was centrifuged in a density gradient ficoll-verografin of […] in order to extract a fraction of immunocompetent cells. This fraction was selected and diluted with the nutrient medium RPMI-1640, containing 5% of fetal calf serum, 0.3 mg/ml of L-glutamin, 100 un/ml of penicillin, and 50 µg/ml of streptomycin. The concentration of lymphocytes was considered after dying them with methylene blue and calculation of cell number in a chamber of a hemocytometer. Initial solutions of the claimed compounds were diluted with the nutrient medium RPMI-1640 so that the final concentrations of the compounds, which were obtained after introduction of lymphocyte suspension, constituted the raw: 100 µg/ml, 10 µg/ml, 1 µg/ml. The final concentration of lymphocytes in the induction mixture was 3x10^6 cell/ml.
Control and test samples were incubated for 24 hours at the temperature of 37°C. After incubation, the samples were centrifuged at 2,000 G to deposit cell elements, and IFN-containing supernatant was separate out of the samples; then the supernatant was analyzed for the quantitative content of IFN. Cell deposition was resuspended in the preceding volume of nutrient medium, colored with vital dye trypan blue, and cell number was counted in a chamber of a hemocytometer (as described above) to determine cytotoxic action of the compounds.
Quantitative determination of the content of IFN in control and test samples was conducted using the immunoenzyme test system Pro Con IF2 Plus, that is intended for determination of IFN-α, which is produced by TOO "Protein contour". The solid-phase immunoenzyme method, utilizing horse radish peroxidase as an indicator enzyme, was used to determine the quantity of interferon in the samples. Activity of the bonded peroxidase was measured using an automatic photometer for microplates with a microprocessor at the wavelength of 450 nm.
Based on the obtained results, a calibrating curve was formed, which allows to obtain data expressed in international units (IU) of activity, using the microprocessor of the automatic photometer. The results of the analysis are expressed in IU of activity of IFN per ml in the given induction system, which contains 3x10^6 lymphocyte/ml. Each test and control point was investigated in four parallels.
Controls of immunoenzyme reaction: • 1. Control of DMSO with a nutrient medium. • 2. Control of system components (according to an instruction).
The obtained data were undergone a statistical analysis using t-criterion, and calculation of the confident interval of probability at p=0.05 was carried out. Coincidence between the results obtained in the parallel tests was analyzed.

[2] = tested on: Herpes Simplex virus of the type I (HSV-I /Leningrad/248/88); assay: Antiviral effect on Herpes Simplex virus (cytopathogenic action on Vero cells); assay type: cell-based; conditions: for Quantity of the unchanged cells: number of cells in 100 visual fields
[3] = tested on: C.trachomatis D323; assay: Antichlamydial activity in infected cell culture (McCoy and L929); assay type: cell-based, Chlamydia trachomatis; conditions: 100 mg/l; for percentage of cell protection from infection / Number of unchanged cells: 48 hours; for Number of unchanged cells: counted in 100 visual fields
Protocol: The antichlamydial activity of the claimed compounds was studied in respect to C.trachomatis […], which is a standard strain contained in the collection of the department of microbiology of St. Petersburg State Pavlov Medical University. […] Cell cultures McCoy and L929 obtained from the Institute of Cytology of RAS were used in this work. Cells were grown in flasks made of neutral glass in the medium RPMI-1640 containing 10% of fetal calf serum. The test was performed in flat-bottom flasks made of glass (non-toxic), that were supplied with cover glasses. The cells were introduced into the medium in the final concentration of 1x10^6 cell/ml. […] Simultaneously, tested compounds in a final concentration of 100 mg/l were added to the cells. The sample was centrifuged at 2400 G for 60 minutes at a room temperature and incubated at 37°C for 2 hours. […] The samples were doubled using the medium without cycloheximide so as to exclude its effect on the investigated compounds. The samples were incubated for 48 hours in CO2-incubator. The controls included: • 1. Control of cell culture • 2. Control of action of solvents • 3. Control of action of chlamydia in absence of any compounds • 4. […] Control of the tested compounds as to toxicity in respect to the cell culture. Evaluation of the results was carried out by the way of determination of chlamydial cytoplasmatic inclusions (CPI) that was conducted by the method of immunofluorescence (MicroTrack Chlamydia trachomatis Direct Specimen Test), and by the way of determination of chlamydia antigens that was conducted by means of CylaMonoScreen (Russian-British Joint Venture 66 Regent's Parc Road London NW1 7SX). The effect of the action of compound was determined by analysis of the monolayer state and number of cells with CPI when compared with the control (cell culture infected with C.trachomatis […]); in doing so, the number of unchanged cells, that were counted in 100 visual fields obtained using the eyepiece-micrometer, was taken into consideration.

[4] = tested on: Mycobacterium tuberculosis H37RV; assay: Antimicrobial action, serial dilution method; assay type: cell-based; conditions: 72-hour cultivation at 37°C
[5] = compound concentration of 100 µg/ml, after 36 hours
[6] = compound concentration of 100 µg/ml, protection of cells from virus as compared to the control of cell culture
[7] = Mycobacterium tuberculosis, H37RV, read-out: MIC

| Compound | Content of IFN in induction mixture after 24-hour incubation ([1]; 1 mg/l) | Content of IFN in induction mixture after 24-hour incubation ([1]; 10 mg/l) | Content of IFN in induction mixture after 24-hour incubation ([1]; 100 mg/l) | Quantity of the unchanged cells [2, 5] | percentage of protection [2, 6] [%] | other results |
| --- | --- | --- | --- | --- | --- | --- |
| CCCCCCCOC(=O)Nc1ccc(S(=O)(=O)Nc2ccccc2Cl)cc1 [XXVII, Carboheptoxysulfanylic acid (2-chlorophenyl)amide] | 1,2 ± 0,1 IU/3x10^4 lymph./ml | 1,5 ± 0,3 IU/3x10^4 lymph./ml | 2 ± 0,3 IU/3x10^4 lymph./ml |  |  |  |
| CCCCOC(=O)Nc1ccc(S(=O)(=O)Nc2ccccc2Cl)cc1 [IX, Carbobutoxysulfanylic acid (2-chlorophenyl)amide] | 1,5 ± 0,1 IU/3x10^4 lymph./ml | 2 ± 0,1 IU/3x10^4 lymph./ml | 2,5 ± 0,5 IU/3x10^4 lymph./ml | 7000 | 70 |  |
| CCCCCOC(=O)Nc1ccc(S(=O)(=O)Nc2c(C)n(C)n(-c3ccccc3)c2=O)cc1 [XLI, Carbopentoxysulfanylic acid (1,5-dimethyl-2-phenylpyrazolone-4-yl)-amide] | 5 ± 0.4 IU/3x10^4 lymph./ml | 18.7 ± 0.2 IU/3x10^4 lymph./ml | 69 ± 1 IU/3x10^4 lymph./ml | 7500 | 75 | activity against chlamydia (in words) [3]: marked biological activity against chlamydia; percentage of cell protection from infection [3]: 55%; Number of unchanged cells [3]: 4.400 |
| Carbo(2,2,2-trifluorethoxy)-sulfanylic acid (1,2,4-thiadiazole-2-butyl-5-yl)amide [XL] | 1.6 ± 0.1 IU/3x10^4 lymph./ml | 3.6 ± 0.5 IU/3x10^4 lymph./ml | 14 ± 0.2 IU/3x10^4 lymph./ml | 7000 | 70 |  |
| CCCCOC(=O)Nc1ccc(S(=O)(=O)Nc2ccccc2)cc1 [XIII, Carbobutoxysulfanylic acid phenylamide] | 1,5 ± 0,2 IU/3x10^4 lymph./ml | 1,4 ± 0,1 IU/3x10^4 lymph./ml | 2 ± 0,1 IU/3x10^4 lymph./ml | 5000 | 50 |  |
| CCCCOC(=O)Nc1ccc(S(=O)(=O)Nc2ccc(Br)cc2)cc1 [III, Carbobutoxysulfanylic acid (4-bromophenyl)amide] | 1,4 ± 0,2 IU/3x10^4 lymph./ml | 2,6 ± 0,3 IU/3x10^4 lymph./ml | 3,5 ± 0,2 IU/3x10^4 lymph./ml | 5000 | 50 |  |
| CCCCOC(=O)Nc1ccc(S(=O)(=O)Nc2cc(C)ccc2C)cc1 [XIV, Carbobutoxysulfanylic acid (2,5-dimethyl)amide] | 1,2 ± 0,1 IU/3x10^4 lymph./ml | 1,8 ± 0,2 IU/3x10^4 lymph./ml | 2 ± 0,2 IU/3x10^4 lymph./ml | 7000 | 70 |  |
| CCCCOC(=O)Nc1ccc(S(=O)(=O)Nc2cccc(Br)c2)cc1 [XII, Carbobutoxysulfanylic acid (3-bromophenyl)amide] | 1,3 ± 0,2 IU/3x10^4 lymph./ml | 2 ± 0,5 IU/3x10^4 lymph./ml | 2,5 ± 0,6 IU/3x10^4 lymph./ml | 5000 | 50 | percentage of cell protection from infection [3]: 45%; Number of unchanged cells [3]: 3.600 |
| Nc1nc2c(ncn2COCCO)c(=O)[nH]1 [Acyclovir, reference compound] |  |  |  |  |  | percentage of protection ([2]; Acyclovir 10 µg/ml, as compared to the control of cell culture): 80%; Quantity of the unchanged cells ([2]; Acyclovir 10 µg/ml): 8000 |
| CC1COc2c(N3CCN(C)CC3)c(F)cc3c(=O)c(C(=O)O)cn1c23 (stereo not drawn) [Ofloxacin] |  |  |  |  |  | MIC [4, 7]: 0.5 µg/mL (≈ 1.38 µM) |
| CCCCCCOC(=O)Nc1ccc(S(=O)(=O)Nc2ccc(Br)cc2)cc1 [V, Carbohexoxysulfanylic acid (4-bromophenyl)amide] | 1,1 ± 0,1 IU/3x10^4 lymph./ml | 1,4 ± 0,1 IU/3x10^4 lymph./ml | 2 ± 0,3 IU/3x10^4 lymph./ml | 5000 | 50 |  |
| [H]/N=C(/N)N[C@H]1[C@H](O)[C@@H](O)[C@H](O[C@@H]2O[C@@H](C)[C@](O)(C=O)[C@H]2O[C@@H]2O[C@@H](CO)[C@H](O)[C@@H](O)[C@@H]2NC)[C@@H](N/C(N)=N\[H])[C@@H]1O [Streptomycin] |  |  |  |  |  | MIC [4, 7]: 0.2 µg/mL (≈ 0.344 µM) |
| CCCCOC(=O)Nc1ccc(S(=O)(=O)Nc2c(Cl)cccc2Cl)cc1 [X, Carbobutoxysulfanylic acid (2,6-dichlorophenyl)amide] | 7 ± 1 IU/3x10^4 lymph./ml | 26 ± 1 IU/3x10^4 lymph./ml | 100 ± 3 IU/3x10^4 lymph./ml | 7000 | 70 | percentage of cell protection from infection [3]: 50%; Number of unchanged cells [3]: 4.000 |
| Carboheptoxysulfanylic acid (1,2,4-thiadiazole-2-hexyl-5-yl)amide [XXXIV] |  |  |  |  |  | MIC [4]: 50 µg/mL |
| NNC(=O)c1ccncc1 [Isoniazid] |  |  |  |  |  | MIC [4, 7]: 0.1 µg/mL (≈ 0.729 µM) |
| CCCCOC(=O)Nc1ccc(S(=O)(=O)Nc2ccccc2C)cc1 [VIII, Carbobutoxysulfanylic acid (2-toluyl)amide] |  |  |  | 8000 | 80 |  |
| CCCCCCOC(=O)Nc1ccc(S(=O)(=O)Nc2ccccc2Cl)cc1 [XXVIII, Carbohexoxysulfanylic acid (2-chlorophenyl)amide] | 1,4 ± 0,1 IU/3x10^4 lymph./ml | 2,3 ± 0,2 IU/3x10^4 lymph./ml | 3 ± 0,1 IU/3x10^4 lymph./ml |  |  |  |
| Rifampycin |  |  |  |  |  | MIC [4]: 0.05 µg/mL |
| CCOC(=O)Nc1ccc(S(=O)(=O)Nn2cnnc2)cc1 [XXVI, Carboethoxysulfanylic acid (1,2,4-triazole-4-yl)amide] | 1,6 ± 0,1 IU/3x10^4 lymph./ml | 2 ± 0,2 IU/3x10^4 lymph./ml | 2,5 ± 0,5 IU/3x10^4 lymph./ml |  |  |  |
| CCCCCOC(=O)Nc1ccc(S(=O)(=O)Nc2c(Cl)cccc2Cl)cc1 [XIX, Carbopentoxysulfanylic acid (2,6-dichlorophenyl)amide] |  |  |  | 8000 | 80 |  |
